Measured values from the NIST ThermoML archive (doi:10.1021/je500211w).

Test: xn = mol fraction of the nth substance listed
Details: 101 kPa, Liquid, NMR spin-echo technique

OCC(F)(F)F [2,2,2-trifluoroethanol] + O
binary diffusion coefficient [m2/s]
Details	283.2 K	288.2 K	293.2 K	298.2 K	303.2 K	308.2 K	313.2 K
x1 = 0.000511	7.32e-10	8.43e-10	1.02e-09	1.13e-09	1.28e-09	1.44e-09	1.71e-09
x1 = 0.001034	7.18e-10	8.44e-10	9.98e-10	1.11e-09	1.27e-09	1.46e-09	1.71e-09
x1 = 0.004989	6.91e-10	8.01e-10	9.67e-10	1.1e-09	1.23e-09	1.41e-09	1.66e-09
x1 = 0.009331	6.69e-10	7.62e-10	9.35e-10	1.1e-09	1.2e-09	1.36e-09	1.57e-09
x1 = 0.01008	6.68e-10	7.87e-10	8.96e-10	1.06e-09	1.23e-09	1.37e-09	1.57e-09
x1 = 0.04965	4.57e-10	5.52e-10	7.24e-10	8.51e-10	9.71e-10	1.1e-09	1.28e-09
